We go through 25 molecules from patent US12134620B2 (ARAXES PHARMA LLC, priority 2018, dated 2024).

In this assay the target is T1, KRAS G12C 1-169, his-tagged protein, GDP-loaded (Homo sapiens, UniProt P01116, G12C).
T1 construct: KRAS G12C 1-169, his-tagged protein, GDP-loaded; His tag
Nature of the assay: Biochemical assay: covalent modification of KRAS G12C, analysed by mass spectrometry (RapidFire/TOF or Q-Exactive). Also: time not given here. It is filed as binding. The conditions noted are these: Modification activity, modification percentage from MS peak intensities. An outline of the steps:
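GDP-loaded His-tagged KRAS G12C 1-169 (2 μM or 0.5 μM in 20 mM Hepes, 150 mM NaCl, 1 mM MgCl2) reacted with compound at 32 μM or 8 μM final (2% DMSO) for a set time, then quenched with formic acid. Percent covalent modification from deconvoluted intact-protein MS peak intensities (RapidFire/TOF or LC-Q Exactive).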
With `C=CC(=O)N1CC2(CCN(c3nc(OCc4cc(F)cc(F)c4)nc(-c4c(C)ccc5cnn(C)c45)c3C#N)C2)C1` [Compound I-165], the Binding % result was “++ (++ indicates binding activity from 50 to 85%)”.
The result for `C/C=C/C(=O)N1CC2(CCN(c3ncnc(-c4c(C)ccc5[nH]ncc45)c3C#N)C2)C1` [Compound I-266, (E)-4-(2-(but-2-enoyl)-2,6-diazaspiro[3.4]octan-6-yl)-6-(5-methyl-1 1H-indazol-4-yl)pyrimidine-5-carbonitrile] reads “+ (+ indicates binding activity greater than 0% and up to 50%)”.
On to `C=CC(=O)N1CC2(CCN(c3nc(OC[C@@H]4CCCN4C)nc(-c4cc(O)ccc4C)c3C#N)C2)C1` [Compound I-22, (S)-4-(2-acryloyl-2,6-diazaspiro[3.4]octan-6-yl)-6-(5-hydroxy-2-methylphenyl)-2-((1-methylpyrrolidin-2-yl)methoxy)pyrimidine-5-carbonitrile], for which the Binding % result was “+ (+ indicates binding activity greater than 0% and up to 50%)”.
The result for `C=CC(=O)N1CC2(CCN(c3ncnc(-c4cc5[nH]ncc5cc4C)c3C#N)C2)C1` [Compound I-235, 4-(2-acryloyl-2,6-diazaspiro[3.4]octan-6-yl)-6-(5-methyl-1H-indazol-6-yl)pyrimidine-5-carbonitrile] reads “+ (+ indicates binding activity greater than 0% and up to 50%)”.
Take `C=CC(=O)N1CC2(CCN(c3nc(N4CCCC4)nc(-c4c(C)ccc5[nH]ncc45)c3C#N)C2)C1` [Compound I-1, 4-(2-acryloyl-2,6-diazaspiro[3.4]octan-6-yl)-6-(5-methyl-1H-indazol-4-yl)-2-(pyrrolidin-1-yl)pyrimidine-5-carbonitrile]: the Binding % entry is reported as “+++ (+++ indicates binding activity greater than 85%)”.
In the case of `C=CC(=O)N1CC2(CCN(c3nc(C(=O)N4CCN(C)CC4)nc(-c4c(C)ccc5[nH]ncc45)c3C#N)C2)C1` [Compound I-203, 4-(2-acryloyl-2,6-diazaspiro[3.4]octan-6-yl)-6-(5-methyl-1H-indazol-4-yl)-2-(4-methylpiperazine-1-carbonyl)pyrimidine-5-carbonitrile], the Binding % result was “+ (+ indicates binding activity greater than 0% and up to 50%)”.
Then `C=CC(=O)N1CC2(CCN(c3nc(OCc4ccc(C(F)(F)F)cn4)nc(-c4c(C)ccc5cnn(C)c45)c3C#N)C2)C1` [Compound I-155, 4-(2-acryloyl-2,6-diazaspiro[3.4]octan-6-yl)-6-(1,6-dimethyl-1H-indazol-7-yl)-2-((5-(trifluoromethyl)pyri-din-2-yl)methoxy)pyrimidine-5-carbonitrile], with “++ (++ indicates binding activity from 50 to 85%)”; and `C=CC(=O)N1CC2(CC(=O)N(c3nc(N4CCOCC4)nc(-c4c(C)ccc5[nH]ncc45)c3C#N)C2)C1` [Compound I-130, 4-(2-acryloyl-7-oxo-2,6-diazaspiro[3.4]octan-6-yl)-6-(5-methyl-1H-indazol-4-yl)-2-morpholinopyrimidine-5-carbonitrile], with “++ (++ indicates binding activity from 50 to 85%)”.
Turning to `C=CC(=O)N1CC2(CCN(c3nc(-c4c(C)ccc5[nH]ncc45)cc(N4CCOCC4)n3)C2)C1` [Compound I-144, 1-(6-(4-(5-methyl-1H-indazol-4-yl)-6-morpholinopyrimidin-2-yl)-2,6-diazaspiro[3.4]octan-2-yl)prop-2-en-1-one], the Binding % result is “+ (+ indicates binding activity greater than 0% and up to 50%)”.
As to `C=CC(=O)N1CC2(CCN(c3nc(OC[C@@H]4CCCN4C)nc(-c4cc(-c5cn[nH]c5)ccc4F)c3C#N)C2)C1` [Compound I-115, (S)-4-(2-acryloyl-2,6-diazaspiro[3.4]octan-6-yl)-6-(2-fluoro-5-(1H-pyrazol-4-yl)phenyl)-2-((1-methylpyrrolidin-2-yl)methoxy)pyrimidine-5-carbonitrile], the Binding % entry was “+ (+ indicates binding activity greater than 0% and up to 50%)”.
Turning to `C=CC(=O)N1CC2(CCN(c3nc(N4CCCC(O)C4)nc(-c4c(C)ccc5[nH]ncc45)c3C#N)C2)C1` (stereo not shown) [Compound I-122, 4-(2-acryloyl-2,6-diazaspiro[3.4]octan-6-yl)-2-(3-hydroxypiperidin-1-yl)-6-(5-methyl-1H-indazol-4-yl)pyrimidine-5-carbonitrile], the Binding % result is “++ (++ indicates binding activity from 50 to 85%)”.
Then `C=CC(=O)N1CC2(CCN(c3nc(N4CCOCC4)nc(-c4cccc5[nH]ncc45)c3C#N)C2)C1` [Compound I-95, 4-(2-acryloyl-2,6-diazaspiro[3.4]octan-6-yl)-6-(1H-indazol-4-yl)-2-morpholinopyrimidine-5-carbonitrile], with “+ (+ indicates binding activity greater than 0% and up to 50%)”; and `CC#CC(=O)N1CC2(CCN(c3cncc(-c4c(C)ccc5[nH]ncc45)c3C#N)C2)C1` [Compound I-272, 3-(2-(but-2-ynoyl)-2,6-diazaspiro[3.4]octan-6-yl)-5-(5-methyl-1H-indazol-4-yl)isonicotinonitrile], with “+ (+ indicates binding activity greater than 0% and up to 50%)”; and `C=CC(=O)N1CC2(CCN(c3ncnc(-c4cc(O)cc5ccccc45)c3C#N)C2)C1` [Compound I-233, 4-(2-acryloyl-2,6-diazaspiro[3.4]octan-6-yl)-6-(3-hydroxynaphthalen-1-yl)pyrimidine-5-carbonitrile], with “+ (+ indicates binding activity greater than 0% and up to 50%)”.
Consider `C=CC(=O)N1CC2(CCN(c3ncnc(-c4c(C)ccc5[nH]ncc45)c3N3CCCC3)C2)C1` [Compound I-261, 1-(6-(6-(5-methyl-1H-indazol-4-yl)-5-(pyrrolidin-1-yl)pyrimidin-4-yl)-2,6-diazaspiro[3.4]octan-2-yl)prop-2-en-1-one], for which the Binding % entry is “+ (+ indicates binding activity greater than 0% and up to 50%)”.
The result for `C=CC(=O)N1CC2(CCN(c3nc(-c4c(C)ccc5[nH]ncc45)c(C#N)c(N4CC(N(C)C)C4)n3)C2)C1` [Compound I-147, 2-(2-acryloyl-2,6-diazaspiro[3.4]octan-6-yl)-4-(3-(dimethylamino)azeti-din-1-yl)-6-(5-methyl-1H-indazol-4-yl)pyrimidine-5-carbonitrile] reads “+ (+ indicates binding activity greater than 0% and up to 50%)”; that for `C=CC(=O)N1CC2(CCN(c3nc(OC[C@@H]4CCCN4C)nc(-c4c(C)ccc5cn[nH]c45)c3C#N)C2)C1` [Compound I-82, 4-(2-acryloyl-2,6-diazaspiro[3.4]octan-6-yl)-6-(6-methyl-1H-indazol-7-yl)-2-(((S)-1-methylpyrrolidin-2-yl)methoxy)pyrimidine-5-carbonitrile], “+ (+ indicates binding activity greater than 0% and up to 50%)”.
The result for `Cc1ccc2[nH]ncc2c1-c1cncc(N2CCC3(CN(C(=O)/C=C/CN(C)C)C3)C2)c1C#N` [Compound I-279, (E)-3-(2-(4-(dimethylamino)but-2-enoyl)-2,6-diazaspiro[3.4]octan-6-yl)-5-(5-methyl-1H-indazol-4-yl)isonicotinonitrile] reads “+ (+ indicates binding activity greater than 0% and up to 50%)”; that for `C=CC(=O)N1CC2(CCN(c3ncnc(-c4c(C)ccc5[nH]ncc45)c3C#N)CC2)C1C(C)C` (stereo not shown) [Compound I-281, 4-(2-acryloyl-1-isopropyl-2,7-diazaspiro[3.5]nonan-7-yl)-6-(5-methyl-1H-indazol-4-yl)pyrimidine-5-carbonitrile], “+ (+ indicates binding activity greater than 0% and up to 50%)”; that for `CC#CC(=O)N1CC2(CCN(c3nc(N4CCOCC4)nc(-c4c(C)ccc5[nH]ncc45)c3C#N)C2)C1` [Compound I-84, 4-(2-(but-2-ynoyl)-2,6-diazaspiro[3.4]octan-6-yl)-6-(5-methyl-1H-indazol-4-yl)-2-morpholinopyrimidine-5-carbonitrile], “+ (+ indicates binding activity greater than 0% and up to 50%)”.
The result for `C=CC(=O)N1CC2(CCN(c3nc(=O)n(Cc4ccccc4)c(-c4c(C)ccc5[nH]ncc45)c3C#N)C2)C1` [Compound I-178, 4-(2-acryloyl-2,6-diazaspiro[3.4]octan-6-yl)-1-benzyl-6-(5-methyl-1H-indazol-4-yl)-2-oxo-1,2-dihydropyrimidine-5-carbonitrile] reads “+ (+ indicates binding activity greater than 0% and up to 50%)”; that for `C=CC(=O)N1CC2(CCN(c3ccnc(-c4c(C)ccc5[nH]ncc45)n3)C2)C1` [Compound I-274, 1-(6-(2-(5-methyl-1H-indazol-4-yl)pyrimidin-4-yl)-2,6-diazaspiro[3.4]octan-2-yl)prop-2-en-1-one], “+ (+ indicates binding activity greater than 0% and up to 50%)”; that for `C=CC(=O)N1CC2(CCN(c3nc(OC[C@H]4CCCN4C)nc(-c4c(C)ccc5[nH]ncc45)c3C#N)C2)C1` [Compound I-6, 4-(2-acryloyl-2,6-diazaspiro[3.4]octan-6-yl)-6-(5-methyl-1H-indazol-4-yl)-2-(((R)-1-methylpyrrolidin-2-yl)methoxy)pyrimidine-5-carbonitrile], “+++ (+++ indicates binding activity greater than 85%)”.
For `C=CC(=O)N1CC2(CCN(c3nc(N4CCN(C)CC4=O)nc(-c4c(C)ccc5[nH]ncc45)c3C#N)C2)C1` [Compound I-111, 4-(2-acryloyl-2,6-diazaspiro[3.4]octan-6-yl)-6-(5-methyl-1H-indazol-4-yl)-2-(4-methyl-2-oxopiperazin-1-yl)pyrimidine-5-carbonitrile], the Binding % entry is “+ (+ indicates binding activity greater than 0% and up to 50%)”.
The result for `C=CC(=O)N1CC2(CCN(c3ncnc(-c4c(C)ccc5[nH]ncc45)c3F)C2)C1` [Compound I-239, 1-(6-(5-fluoro-6-(5-methyl-1H-indazol-4-yl)pyrimidin-4-yl)-2,6-diazaspiro[3.4]octan-2-yl)prop-2-en-1-one] reads “+ (+ indicates binding activity greater than 0% and up to 50%)”.
